US20100075907A1, “NEUROMEDIN U RECEPTOR AGONISTS AND USES THEREOF” (priority 2006, published 2010)
Starred links: 1 amine or outer side, 2 acyl side, 3 side chain; linkers in the order of their positions; H or OH if unused. Non-standard residues stand in square brackets, D forms with d. Residues, ends and D or L forms follow the SMILES beside them. *: point of attachment. X2 = CCN1C(=O)CC(SC[C@H](NC(C)=O)C(=O)NCCCOCCOCCOCCCN*)C1=O; Succinimide(1-Et,3-yl) = CCN1C(=O)CC(*)C1=O; Palmitoyl = CCCCCCCCCCCCCCCC(=O)*; Suc = O=C(CCC(=O)[*:2])[*:1]

How the values were obtained:
Assay type in all cases: cell-based
Conditions in all cases: for EC50: FLIPR
hNMUR2 = hNMUR2 (Homo sapiens, UniProt Q9GZQ4); assay: FLIPR calcium mobilization assay, human NMUR2; set-up: expressed in transfected cells; host or cells: FLP-In CHO or HEK-293 FLP-In cells (pcDNA5); HEK-293/aeq17 lines (pcDNA3.1) were also made
Chain of hNMUR2 (Q9GZQ4 whole entry): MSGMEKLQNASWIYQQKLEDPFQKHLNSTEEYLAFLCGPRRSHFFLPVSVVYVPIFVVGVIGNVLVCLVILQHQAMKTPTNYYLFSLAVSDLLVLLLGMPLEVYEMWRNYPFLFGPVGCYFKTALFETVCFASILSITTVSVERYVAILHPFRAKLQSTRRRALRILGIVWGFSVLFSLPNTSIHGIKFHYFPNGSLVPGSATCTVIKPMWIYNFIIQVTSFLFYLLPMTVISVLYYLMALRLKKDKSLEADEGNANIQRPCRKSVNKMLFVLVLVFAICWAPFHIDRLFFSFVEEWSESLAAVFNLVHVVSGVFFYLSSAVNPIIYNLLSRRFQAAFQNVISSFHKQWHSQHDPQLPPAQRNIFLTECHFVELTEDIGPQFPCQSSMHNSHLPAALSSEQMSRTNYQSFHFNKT
From the text: (§1) Human, mouse or rat cDNAs encoding NMUR1 or NMUR2 (as described in Howard et al. Nature 406: 70-74 (2000) were subcloned in pcDNA5 (Invitrogen) and transfected into FLP-In CHO cells and HEK-293 FLP-In cells purchased from Invitrogen (Carlsbad, Calif.) using lipofectamine (Invitrogen). The Flp-In system allows integration and expression of a particular gene of interest at a specific genomic location utilizing the Flp recombinase from yeast. The transfected cells were selected by growth in medium containing 200 μg/mL hygromycin (Invitrogen). Populations were frozen at early passage numbers, and these stocks were used for further studies. Stable clones that expressed the mRNAs were identified functionally by FLIPR as well as by RT-PCR. […] Two different rodent NMUR1 cell lines were thus generated: one with the codon as predicted from the genomic databases and another cell line with an engineered methionine (ATG) as the start codon. Additionally, stable cell lines expressing the human receptors were generated in HEK-293/aeq17 cells which stably express the aequorin gene under the CMV promoter. The human NMUR2 cDNA was cloned into pcDNA3.1 and human NMUR1 was subcloned into pIRES-puro (Clontech, Mountain View, Calif.), after transfection cells were selected in media containing G418 and either hygromycin (NMUR2) or puromycin (NMUR1).
(§2) The NMU receptors signal primarily through Gαq/11 proteins; therefore calcium mobilization assays can be utilized for functional activity.
(§3) Stable cell lines expressing human and or rodent NMUR1 or human NMUR2 receptors were plated at a density of 12,000 cells per well overnight on poly-lysine coated 384-well black-walled plates. The following day, the media was removed from the plates and the cells were subsequently loaded with Fluo-3 (Molecular Probes), a calcium sensitive dye, diluted in FLIPR buffer (1× Hank's buffered saline containing 20 mM HEPES, 0.1% BSA, 2.5 mM probenecid (Sigma) and 1.6 mM TR40). All reagents are from Invitrogen unless otherwise noted. Peptide stocks were resuspended in DMSO at a stock concentration of 2 mM and diluted in FLIPR buffer on the day of the experiment to a 4 μM working stock solution.
(§4) After a 90 minute incubation at room-temperature, cell plates were loaded onto a FLIPR (Molecular Devices) to monitor cellular fluorescence (excitation=488 nm; emission=540 nm) before and after compound/peptide addition. Eight to twelve point dose responses were tested on NMUR-expressing cell lines using FLIPR with 1 μM peptide as the highest dose. The response after peptide addition was taken as the maximum fluorescence units minus the fluorescence immediately prior to stimulation for each well. EC50 values were calculated using GraphPad Prism (San Diego, Calif.) software.
(§5) In vitro responses of Neuromedin U receptor agonists (NMU1 to NMU25) in the FLIPR assay for human (Table 3), mouse (Table 4) and rat (Table 5) NMUR1 and NMUR2. EC50s are reported in nM values. Percent activity refers to the maximum response at 1 μM compared to the hNMU-25 response at the same concentration. NT=not tested.

hNMUR1 = molecular target: T1, hNMUR1 (Homo sapiens, UniProt Q9HB89); assay: FLIPR calcium mobilization assay, human NMUR1; set-up: expressed in transfected cells; host or cells: FLP-In CHO or HEK-293 FLP-In cells (pcDNA5); HEK-293/aeq17 lines (pIRES-puro) were also made
T1 sequence (Q9HB89 1-426): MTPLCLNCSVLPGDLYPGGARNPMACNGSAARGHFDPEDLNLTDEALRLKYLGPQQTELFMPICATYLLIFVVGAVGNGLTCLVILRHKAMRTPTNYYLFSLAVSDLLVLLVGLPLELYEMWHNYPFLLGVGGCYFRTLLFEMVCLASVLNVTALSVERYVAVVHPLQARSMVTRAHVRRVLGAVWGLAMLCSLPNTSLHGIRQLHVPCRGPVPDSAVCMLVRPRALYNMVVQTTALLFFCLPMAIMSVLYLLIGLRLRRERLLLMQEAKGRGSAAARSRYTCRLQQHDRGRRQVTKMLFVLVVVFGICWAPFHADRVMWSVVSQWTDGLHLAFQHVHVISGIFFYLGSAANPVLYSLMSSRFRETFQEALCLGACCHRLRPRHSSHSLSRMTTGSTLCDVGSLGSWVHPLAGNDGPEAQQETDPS
From the text: as §1, §2, §3, §4, §5

mouse NMUR1-ATG = molecular target: T2, mouse NMUR1-ATG (Mus musculus, UniProt O55040); assay: FLIPR calcium mobilization assay, mouse NMUR1-ATG; set-up: expressed in transfected cells; host or cells: FLP-In CHO or HEK-293 FLP-In cells (pcDNA5)
T2 sequence (O55040 1-428): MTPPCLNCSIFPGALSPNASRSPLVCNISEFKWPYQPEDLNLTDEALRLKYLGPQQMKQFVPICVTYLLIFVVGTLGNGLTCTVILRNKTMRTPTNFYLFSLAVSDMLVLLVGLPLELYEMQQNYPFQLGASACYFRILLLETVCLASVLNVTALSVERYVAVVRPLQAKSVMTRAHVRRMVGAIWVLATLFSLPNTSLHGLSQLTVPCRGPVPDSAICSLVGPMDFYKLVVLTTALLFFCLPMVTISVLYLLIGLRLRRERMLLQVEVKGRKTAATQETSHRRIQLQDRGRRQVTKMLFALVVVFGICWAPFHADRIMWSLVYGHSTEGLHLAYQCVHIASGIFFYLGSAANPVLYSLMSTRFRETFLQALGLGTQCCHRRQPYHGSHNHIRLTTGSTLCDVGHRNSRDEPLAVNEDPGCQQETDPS
From the text: as §1, §2, §3, §4, §5

[1] = maximum response at 1 μM compared to hNMU-25, human NMUR2
[2] = maximum response at 1 μM compared to hNMU-25 response at same concentration, human NMUR1
[3] = maximum response at 1 μM compared to hNMU-25, mouse NMUR1-ATG

| Compound | % Activity (hNMUR2; [1]) | % Activity (hNMUR1; [2]) | % Activity (mouse NMUR1-ATG; [3]) | EC50 (hNMUR2; human NMUR2) | EC50 (hNMUR1; human NMUR1) | EC50 (mouse NMUR1-ATG; mouse NMUR1-ATG) | % Activity (hNMUR2; functional, human R2, relative to native hNMU responses) | % Activity (hNMUR1; functional, human R1, relative to native hNMU responses) | % Activity (mouse NMUR1-ATG; functional, mouse R1-ATG, relative to native hNMU responses) |
| --- | --- | --- | --- | --- | --- | --- | --- | --- | --- |
| CCN1C(=O)CC(SC[C@H](NC(C)=O)C(=O)NCCCOCCOCCOCCCNC(=O)CCC(=O)N[C@@H](Cc2ccccc2)C(=O)N[C@@H](CC(C)C)C(=O)N[C@@H](Cc2ccccc2)C(=O)N[C@@H](CCCNC(=N)N)C(=O)N2CCC[C@H]2C(=O)N[C@@H](CCCNC(=N)N)C(=O)N[C@@H](CC(N)=O)C(N)=O)C1=O (stereo partly drawn) [NMU15, Ac-C1-Ttds-FLFRPRN-CONH2] ({X2-Suc}-FLFRPRN-NH2) | 101% | 91.5% | 100% |  |  |  |  |  |  |
| CCN1C(=O)CC(SC[C@H](NC(C)=O)C(=O)N[C@@H](Cc2ccccc2)C(=O)N[C@@H](CCCNC(=N)N)C(=O)N[C@H](C(=O)N[C@@H](CC(=O)O)C(=O)N[C@@H](CCC(=O)O)C(=O)N[C@@H](CCC(=O)O)C(=O)N[C@@H](Cc2ccccc2)C(=O)N[C@@H](CCC(N)=O)C(=O)N[C@@H](CO)C(=O)N2CCC[C@H]2C(=O)N[C@@H](Cc2ccccc2)C(=O)N[C@@H](C)C(=O)N[C@@H](CO)C(=O)N[C@@H](CCC(N)=O)C(=O)N[C@@H](CO)C(=O)N[C@@H](CCCNC(=N)N)C(=O)NCC(=O)N[C@@H](Cc2ccc(O)cc2)C(=O)N[C@@H](Cc2ccccc2)C(=O)N[C@H](C)C(=O)N[C@@H](Cc2c[nH]c3ccccc23)C(=O)N[C@@H](CCCNC(=N)N)C(=O)N2CCC[C@H]2C(=O)N[C@@H](CCCNC(=N)N)C(=O)N[C@@H](CC(N)=O)C(N)=O)C(C)C)C1=O (stereo partly drawn) [NMU13] (Ac-C(Succinimide(1-Et,3-yl))FRVDEEFQSPFASQSRGYF[dA]WRPRN-NH2) | 0.0% | 100% | 98.6% | > 1000 nM |  |  | 0% | 91% | 96% |
| Ac-C2FRVDEEFQSPFASQSRGYFLFRPRN-CONH2 [NMU9] ({Ac-C(PEG 40 kDa)}-FRVDEEFQSPFASQSRGYFLFRPRN-NH2) [C2 = Cys(PEG)240 kDa from Nektar (mPEG2-MAL-40 k)] | 94.3% | 94.4% | 95.0% | 91.1 nM | 50.6 nM | 45.7 nM |  |  |  |
| CCN1C(=O)CC(SC[C@H](NC(C)=O)C(=O)NCC(=O)N[C@@H](Cc2ccc(O)cc2)C(=O)N[C@@H](Cc2ccccc2)C(=O)N[C@@H](CC(C)C)C(=O)N[C@@H](Cc2ccccc2)C(=O)N[C@@H](CCCNC(=N)N)C(=O)N2CCC[C@H]2C(=O)N[C@@H](CCCNC(=N)N)C(=O)N[C@@H](CC(N)=O)C(N)=O)C1=O (stereo partly drawn) [NMU6] (Ac-C(Succinimide(1-Et,3-yl))GYFLFRPRN-NH2) | 100% | 96.7% | 100% | 1.5 nM |  |  |  |  |  |

The next lines start with results.

| % Activity (hNMUR2; [1]) | % Activity (hNMUR1; [2]) | % Activity (mouse NMUR1-ATG; [3]) | EC50 (hNMUR2; human NMUR2) | EC50 (hNMUR1; human NMUR1) | EC50 (mouse NMUR1-ATG; mouse NMUR1-ATG) | Compound | % Activity (hNMUR2; functional, human R2, relative to native hNMU responses) | % Activity (hNMUR1; functional, human R1, relative to native hNMU responses) | % Activity (mouse NMUR1-ATG; functional, mouse R1-ATG, relative to native hNMU responses) |
| --- | --- | --- | --- | --- | --- | --- | --- | --- | --- |
| 63.9% | 34.4% | 81.4% |  |  |  | CCCCCCCCCCCCCCCC(=O)N[C@@H](CSC1CC(=O)N(CC)C1=O)C(=O)N[C@@H](Cc1ccccc1)C(=O)N[C@@H](CCCNC(=N)N)C(=O)N[C@H](C(=O)N[C@@H](CC(=O)O)C(=O)N[C@@H](CCC(=O)O)C(=O)N[C@@H](CCC(=O)O)C(=O)N[C@@H](Cc1ccccc1)C(=O)N[C@@H](CCC(N)=O)C(=O)N[C@@H](CO)C(=O)N1CCC[C@H]1C(=O)N[C@@H](Cc1ccccc1)C(=O)N[C@@H](C)C(=O)N[C@@H](CO)C(=O)N[C@@H](CCC(N)=O)C(=O)N[C@@H](CO)C(=O)N[C@@H](CCCNC(=N)N)C(=O)NCC(=O)N[C@@H](Cc1ccc(O)cc1)C(=O)N[C@@H](Cc1ccccc1)C(=O)N[C@@H](CC(C)C)C(=O)N[C@@H](Cc1ccccc1)C(=O)N[C@@H](CCCNC(=N)N)C(=O)N1CCC[C@H]1C(=O)N[C@@H](CCCNC(=N)N)C(=O)N[C@@H](CC(N)=O)C(N)=O)C(C)C (stereo partly drawn) [NMU24] (Palmitoyl-C(Succinimide(1-Et,3-yl))FRVDEEFQSPFASQSRGYFLFRPRN-NH2) |  |  |  |
| 99.8% | 100% | 100% | 1.5 nM |  |  | CCN1C(=O)CC(SC[C@H](NC(C)=O)C(=O)N[C@@H](C)C(=O)N[C@@H](CO)C(=O)N[C@@H](CCC(N)=O)C(=O)N[C@@H](CO)C(=O)N[C@@H](CCCNC(=N)N)C(=O)NCC(=O)N[C@@H](Cc2ccc(O)cc2)C(=O)N[C@@H](Cc2ccccc2)C(=O)N[C@@H](CC(C)C)C(=O)N[C@@H](Cc2ccccc2)C(=O)N[C@@H](CCCNC(=N)N)C(=O)N2CCC[C@H]2C(=O)N[C@@H](CCCNC(=N)N)C(=O)N[C@@H](CC(N)=O)C(N)=O)C1=O (stereo partly drawn) [NMU17] (Ac-C(Succinimide(1-Et,3-yl))ASQSRGYFLFRPRN-NH2) |  |  |  |
| 105% | 95.9% | 100% |  |  |  | CCN1C(=O)CC(SC[C@H](NC(C)=O)C(=O)N[C@@H](Cc2ccccc2)C(=O)N[C@@H](CCC(N)=O)C(=O)N[C@@H](CO)C(=O)N2CCC[C@H]2C(=O)N[C@@H](Cc2ccccc2)C(=O)N[C@@H](C)C(=O)N[C@@H](CO)C(=O)N[C@@H](CCC(N)=O)C(=O)N[C@@H](CO)C(=O)N[C@@H](CCCNC(=N)N)C(=O)NCC(=O)N[C@@H](Cc2ccc(O)cc2)C(=O)N[C@@H](Cc2ccccc2)C(=O)N[C@@H](CC(C)C)C(=O)N[C@@H](Cc2ccccc2)C(=O)N[C@@H](CCCNC(=N)N)C(=O)N2CCC[C@H]2C(=O)N[C@@H](CCCNC(=N)N)C(=O)N[C@@H](CC(N)=O)C(N)=O)C1=O (stereo partly drawn) [NMU19] (Ac-C(Succinimide(1-Et,3-yl))FQSPFASQSRGYFLFRPRN-NH2) |  |  |  |
|  |  |  | 13 nM | 16.4 nM | 12.7 nM | Ac-C2FQSPFASQSRGYFLFRPRN-CONH2 ({Ac-C(PEG 40 kDa)}-FQSPFASQSRGYFLFRPRN-NH2; not fully specified; printed as Ac-C2FQSPFASQSRGYFLFRPRN-CONH2) [NMU20, C2 = Cys(PEG)240 kDa] |  |  |  |
